Data reported in US10377770B2 (Novartis AG, priority 2015, dated 2019).

Target: C-Raf FL (full length CRAF with Y340E and Y341E activating mutations, co-expressed with h14-3-3 zeta) (Homo sapiens (Human), UniProt P04049, Y340E/Y341E)
Test: In vitro Raf activity determination, AlphaScreen p-MEK readout, c-Raf (C-Raf FL)
Format: biochemical
Details: c-Raf approximately 4 nM, ATP 1 μM, pre-incubation 60 minutes, reaction 1 hour
Outline: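 Phosphorylation of kinase-dead biotinylated MEK1 (~10 nM) by C-Raf FL (~4 nM) read by AlphaScreen luminescence with anti-phospho-MEK1/2 after EDTA stop. ATP was 1 μM, with a 1 h reaction at room temperature. Compounds were pre-incubated with enzyme and substrate for 60 min in Tris/MgCl2 buffer, pH 7.5.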

Sequence of C-Raf FL (full length CRAF with Y340E and Y341E activating mutations, co-expressed with h14-3-3 zeta) (P04049 whole entry Y340E/Y341E): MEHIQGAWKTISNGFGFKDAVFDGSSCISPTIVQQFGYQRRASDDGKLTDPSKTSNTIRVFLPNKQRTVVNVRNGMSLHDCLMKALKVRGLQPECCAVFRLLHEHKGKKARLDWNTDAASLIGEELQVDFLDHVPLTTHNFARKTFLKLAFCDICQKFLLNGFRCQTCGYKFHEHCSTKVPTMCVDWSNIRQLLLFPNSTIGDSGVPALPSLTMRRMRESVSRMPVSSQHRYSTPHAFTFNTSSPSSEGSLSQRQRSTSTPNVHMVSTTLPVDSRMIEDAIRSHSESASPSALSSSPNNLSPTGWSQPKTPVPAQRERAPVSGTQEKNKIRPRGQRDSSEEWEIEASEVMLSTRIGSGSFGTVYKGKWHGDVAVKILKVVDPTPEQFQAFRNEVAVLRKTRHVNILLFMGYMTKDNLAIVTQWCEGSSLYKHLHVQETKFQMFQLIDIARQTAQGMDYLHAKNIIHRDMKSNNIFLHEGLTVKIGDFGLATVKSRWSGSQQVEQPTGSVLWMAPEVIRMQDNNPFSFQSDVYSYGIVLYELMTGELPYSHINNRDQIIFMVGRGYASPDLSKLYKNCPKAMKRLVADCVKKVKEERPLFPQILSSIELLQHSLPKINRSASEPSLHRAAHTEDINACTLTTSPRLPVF
Sequence of C-Raf FL (full length CRAF with Y340E and Y341E activating mutations, co-expressed with h14-3-3 zeta) (P63104 whole entry partner): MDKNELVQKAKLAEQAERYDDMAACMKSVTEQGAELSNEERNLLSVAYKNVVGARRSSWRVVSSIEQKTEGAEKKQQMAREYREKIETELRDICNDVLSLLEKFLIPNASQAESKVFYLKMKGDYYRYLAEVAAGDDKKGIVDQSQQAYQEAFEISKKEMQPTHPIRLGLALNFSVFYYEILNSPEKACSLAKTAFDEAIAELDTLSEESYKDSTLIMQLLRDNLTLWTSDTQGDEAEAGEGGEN

Going from `Cc1ccc(NC(=O)c2ccnc(C(F)(F)F)c2F)cc1-c1cc2n(c(=O)c1)CC[C@@H]1COCCN21` [Example 415, (R)-3-fluoro-N-(4-methyl-3-(8-oxo-1,2,4,4a,5,6-hexahydro-8H-pyrido[2′,1′:2,3]pyrimido[6,1-c][1,4]oxazin-10-yl)phenyl)-2-(trifluoromethyl)isonicotinamide] to `CCN1C[C@@H]2COCC[C@H]2c2cc(-c3cc(NC(=O)c4ccnc(C(F)(F)F)c4F)ccc3C)cnc21` [Example 293, N-(3-((4aR, 10bR)-6-ethyl-2,4,4a,5,6,10b-hexahydro-1H-pyrano[3,4-c][1,8]naphthyridin-9-yl)-4-methylphenyl)-3-fluoro-2-(trifluoromethyl) isonicotinamide], the IC50 falls from 0.8 nM to 0.1 nM (8-fold).

Compared with `Cc1ncc(NC(=O)c2ccnc(C(C)(C)F)c2)cc1-c1ccc2c(c1)N1CCOCC[C@H]1C[C@@H]2O` [Example 445, 2-(2-fluoropropan-2-yl)-N-(5-((5aS,7S)-7-hydroxy-1,2,5,5a,6,7-hexahydro-4H-[1,4]oxazepino [4,5-a]quinolin-10-yl)-6-methylpyridin-3-yl)isonicotinamide], `Cc1ccc(NC(=O)c2ccnc(C(C)(C)F)c2)cc1-c1cnc2c(c1)N1CCOC[C@@H]1C[C@@H]2O` [Example 143, 2-(2-fluoropropan-2-yl)-N-(3-((4aS,6S)-6-hydroxy-1,2,4,4a,5,6-hexahydro-[1,4]oxazino[4,3 a][1,5]naphthyridin 9-yl)-4-methylphenyl)isonicotinamide] is 80-fold lower in IC50: 0.7 nM for the first, 0.0088 nM for the second.

First: Cc1ccc(NC(=O)c2ccnc(C(C)(F)F)c2)cc1-c1cnc2c(c1)[C@@]1(C)CCOCC[C@@H]1C(=O)N2CCO (relative stereo) [Example 352, 2-(1,1-difluoroethyl)-N-((5a,11b-trans)-3-(7-(2-hydroxyethyl)-11b-methyl-6-oxo-1,2,4,5,5a,6,7,11b-octahydrooxepino[4,5-c][1,8]naphthyridin-10-yl)-4-methylphenyl)isonicotinamide]
Second: Cc1ccc(NC(=O)c2ccnc(C(F)(F)F)c2F)cc1-c1cnc2c(c1)C1(C)CCOCCC1C(=O)N2CCO (single isomer, unassigned) [Example 354, 3-fluoro-N-(3-((5a,11b-trans)-7-(2-hydroxyethyl)-11b-methyl-6-oxo-1,2,4,5,5a,6,7,11b-octahydrooxepino[4,5-c][1,8]naphthyridin-10-yl)-4-methylphenyl)-2-(trifluoromethyl)isonicotinamide]
The IC50 of the first is 3-fold lower: 0.1 nM for the first, 0.3 nM for the second. The first is the more potent here.

Compared with `Cc1ccc(NC(=O)c2ccnc(C(F)(F)F)c2)cc1-c1ccc2c(c1)N1CCOC[C@@H]1C[C@@H]2O` [Example 5, N-(3-((4aS,6S)-6-hydroxy-1,2,4,4a,5,6-hexahydro-[1,4]oxazino[4,3-a]quinolin-9-yl)-4-methylphenyl)-2-(trifluoromethyl)isonicotinamide], `Cc1ccc(NC(=O)c2ccnc(C(F)(F)F)c2)cc1-c1cnc2c(c1)N1CCOC[C@H]1C[C@@H]2O` (racemic) [Example 37, (rac)-(cis)-N-(3-(6-hydroxy-1,2,4,4a,5,6-hexahydro-[1,4]oxazino[4,3-a][1,5]naphthyridin-9-yl)-4-methylphenyl)-2-(trifluoromethyl)isonicotinamide] is 4.4-fold lower in IC50: 0.036 nM for the first, 0.0081 nM for the second.

`Cc1ccc(NC(=O)c2ccnc(C(C)(C)F)c2)cc1-c1cc(F)c2c(c1)N1CCOC[C@H]1[C@@](F)(CO)C2` [Example 432, N-(3-((4aS,5R)-5,7-difluoro-5-(hydroxymethyl)-1,2,4,4a,5,6-hexahydro-[1,4]oxazino[4,3-a]quinolin-9-yl)-4-methylphenyl)-2-(2-fluoropropan-2-yl)isonicotinamide] and `Cc1ccc(NC(=O)c2ccnc(C(F)(F)F)c2)cc1-c1cc(F)c2c(c1)N1CCOC[C@H]1[C@@](F)(CO)C2` [Example 429, N-(3-((4aS,5R)-5,7-difluoro-5-(hydroxymethyl)-1,2,4,4a,5,6-hexahydro-[1,4]oxazino[4,3-a]quinolin-9-yl)-4-methylphenyl)-2-(trifluoromethyl)isonicotinamide] are within 1.5-fold of each other in IC50: 0.7 nM for the first, 0.8 nM for the second.

`CCNC(=O)C1Cc2ccc(-c3cc(NC(=O)c4ccnc(C(F)(F)F)c4)ccc3C)cc2N2CCOCC12` (racemic) [Example 73, (rac)-N-ethyl-9-(2-methyl-5-(2-(trifluoromethyl)isonicotinamido)phenyl)-1,2,4,4a,5,6-hexahydro-[1,4]oxazino[4,3-a]quinoline-5-carboxamide] and `CCN1C(=O)C[C@@H]2COCCN2c2cc(-c3cc(NC(=O)c4ccnc(C(F)(F)F)c4)ccc3C)cnc21` [Example 129, (R)-N-(3-(7-Ethyl-6-oxo-1,2,4a,5,6,7-hexahydro-4H-[1,4]oxazino[4,3-d]pyrido[2,3-b][1,4]diazepin-10-yl)-4-methylphenyl)-2-(trifluoromethyl)isonicotinamide] are within 1.5-fold of each other in IC50: 0.2 nM for the first, 0.18 nM for the second.

Going from `Cc1ncc(NC(=O)c2cccc(C(F)(F)F)c2)cc1-c1cc(F)c2c(c1)N1CCOC[C@H]1[C@@](F)(CO)C2` [Example 431, N-(5-((4aS,5R)-5,7-difluoro-5-(hydroxymethyl)-1,2,4,4a,5,6-hexahydro-[1,4]oxazino[4,3-a]quinolin-9-yl)-6-methylpyridin-3-yl)-3-(trifluoromethyl)benzamide] to `Cc1ncc(NC(=O)c2ccnc(C(F)(F)F)c2)cc1-c1ccc2c(c1)N1CCOC[C@H]1[C@](F)(CF)C2` [Example 471, N-(5-((4aS,5S)-5-fluoro-5-(fluoromethyl)-1,2,4,4a,5,6-hexahydro-[1,4]oxazino[4,3-a]quinolin-9-yl)-6-methylpyridin-3-yl)-2-(trifluoromethyl)iso-nictonamide], the IC50 falls from 4.4 nM to 1.2 nM (3.7-fold). The second is the more potent here.

Going from `Cc1ccc(NC(=O)c2ccnc(C(C)(F)F)c2)cc1-c1cnc2c(c1)C1C3COCC3C1C(=O)N2CCO` (stereo not shown) [Example 279, 2-(1,1-difluoroethyl)-N-(3-(5-(2-hydroxyethyl)-6-oxo-5,6,6a,6b,7,9,9a,9b-octahydrofuro[3′,4′: 3,4]cyclobuta[1,2-c][1,8]naphthyridin-2-yl)-4-methylphenyl) isonicotinamide] to `CCN1C(=O)[C@H]2[C@@H]3COC[C@@H]3[C@H]2c2cc(-c3cc(NC(=O)c4ccnc(C(F)(F)F)c4)ccc3C)cnc21` [Example 270, N-(3-((6aR, 6bR, 9aR, 9bR)-5-ethyl-6-oxo-5,6,6a,6b,7,9,9a,9b-octahydrofuro[3′,4′: 3,4]cyclobuta[1,2-c][1,8]naphthyridin-2-yl)-4-methylphenyl)-2-(trifluoromethyl) isonicotinamide], the IC50 falls from 0.4 nM to 0.2 nM (2-fold). The second is the more potent here.

Going from `CCN1C[C@H]2COCCN2c2cc(-c3cc(NC(=O)c4ccnc(C(C)(F)F)c4)ccc3C)cnc2C1=O` [Example 498, (S)-2-(1,1-difluoroethyl)-N-(3-(6-ethyl-7-oxo-1,2,4a,5,6,7-hexahydro-4H-[1,4]oxazino[4,3-a]pyrido[2,3-f][1,4]diazepin-10-yl)-4-methylphenyl)iso-nicotinamide] to `CCN1C[C@@H]2COCCN2c2cc(-c3cc(NC(=O)c4cccc(C(F)(F)F)c4)cnc3C)cnc2C1=O` [Example 501, (R)-N-(5-(6-ethyl-7-oxo-1,2,4a,5,6,7-hexahydro-4H-[1,4]oxazino[4,3-a]pyrido[2,3-f][1,4]diazepin-10-yl)-6-methypyridin-3-yl)-3-(trifluoro-methyl)benzamide], the IC50 falls from 0.6 nM to 0.2 nM (3-fold). The second is the more potent here.

Going from `CC[C@@H]1Oc2nnc(-c3cc(NC(=O)c4ccnc(C(C)(F)F)c4)ccc3C)cc2N2CCOC[C@@H]12` [Example 534, 2-(1,1-difluoroethyl)-N-(3-((6S,6aS)-6-ethyl-6a,7,9,10-tetrahydro-6H-[1,4]oxazino[4,3-d]pyridazino[3,4-b][1,4]oxazin-2-yl)-4-methylphenyl)isonicotinamide] to `Cc1ccc(NC(=O)c2ccnc(C(C)(F)F)c2)cc1-c1cnc2c(c1)N1CCOC[C@@H]1[C@H](C(C)(C)O)C2` [Example 450, 2-(1,1-difluoroethyl)-N-(3-((4aS,5R)-5-(2-hydroxypropan-2-yl)-1,2,4,4a,5,6-hexahydro-[1,4]oxazino[4,3-a][1,5]naphthyridin-9-yl)-4-methylphenyl) isonicotinamide], the IC50 rises from 0.1 nM to 0.2 nM (2-fold).

`CCN1C[C@@H]2COCC[C@H]2c2cc(-c3cc(NC(=O)c4cccc(C(F)(F)F)c4F)cnc3C)cnc21` [Example 294, N-(5-((4aR, 10bR)-6-ethyl-2,4,4a,5,6,10b-hexahydro-1H-pyrano[3,4-c][1,8]naphthyridin-9-yl)-6-methylpyridin-3-yl)-2-fluoro-3-(trifluoromethyl) benzamide] and `CCN1C(=O)OC2COCCC2c2cc(-c3cc(NC(=O)c4ccnc(C(F)(F)F)c4F)ccc3C)cnc21` [Example 299, N-(3-((4aS,11bR- cis)-7-ethyl-6-oxo-2,4,4a,6,7,11b-hexahydro-1H-pyrano[4,3-f]pyrido[2,3-d][1,3]oxazepin-10-yl)-4-methylphenyl)-3-fluoro-2-(trifluoromethyl) isonicotinamide] are the same in IC50: 0.1 nM for the first, 0.1 nM for the second.

Going from `Cc1ncc(NC(=O)c2cccc(C(F)(F)F)c2)cc1-c1cnc2c(c1)N1CCOC[C@@H]1[C@@H](C(C)(C)O)C2` [Example 455, N-(5-((4aS,5S)-5-(2-hydroxypropan-2-yl)-1,2,4,4a,5,6-hexahydro-[1,4]oxazino[4,3-a][l,5]naphthyridin-9-yl)-6-methylpyridin-3-yl)-3-(trifluoro-methyl)benzamide] to `Cc1ccc(NC(=O)c2ccnc(C(F)(F)F)c2)cc1-c1cnc2c(c1)N1CCOC[C@H]1C[C@H]2OCCO` [Example 508, N-(3-((4aR,6R)-6-(2-hydroxyethoxy)-1,2,4,4a,5,6-hexahydro-[1,4]oxazino[4,3-a][1,5]naphthyridin-9-yl)-4-methylphenyl)-2-(trifluoromethyl)iso-nicotinamide], the IC50 falls from 1.3 nM to 0.2 nM (6.5-fold).

With `CCN1C(=O)N2COCCC2(C)c2cc(-c3cc(NC(=O)c4ccnc(C(F)(F)F)c4)ccc3C)ccc21` (stereo not shown) [Example 244, N-(3-(7-ethyl-11b-methyl-6-oxo-1,2,4,6,7,11b-hexahydro-[1,3]oxazino[3,4-c]quinazolin-10-yl)-4-methylphenyl)-2-(trifluoromethyl) isonicotinamide] the IC50 was 0.1 nM.
